Results reported in PubChem BioAssay AID2060342 (Molecular Pharmacology Branch, DTP, NCI, 2025).

Test system: 171881-019-R-J1-PDC multicell spheroid viability
Test: Anticancer human tumor 171881-019-R-J1-PDC patient-derived invasive breast carcinoma cell line growth inhibition [IpAb]
Conditions: for IC50: curve of first compound; for viability, T/C: stronger effect = lower value
Outline: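 Multi-cell spheroids of 60% tumour cells, 25% HUVEC and 15% MSC in ultra-low-attachment U-bottom wells, treated with agents combined with ipatasertib or abemaciclib. Half-log ranges top out near clinical Cmax, or 10 microM when Cmax is unknown.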
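Further: spheroids exposed to the agents for seven days before readout.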

In the case of `CC(C)(C)c1cnc(CSc2cnc(NC(=O)C3CCNCC3)s2)o1` + CC(C)NCC(C(=O)N1CCN(c2ncnc3c2C(C)CC3O)CC1)c1ccc(Cl)cc1, the IC50 (second compound 0.1 µM) is reported as 187 nM, the IC50 (second compound 0.316 µM) is reported as 156 nM and the IC50 (second compound 1 µM) is reported as under 9.49 nM. The IC50 (second compound 3.16 µM) was under 9.49 nM, the IC50 (second compound 10 µM) was under 9.49 nM and the viability, T/C (second compound 0.1 µM, first compound 0.00949 µM) was 104%. It also gave a viability, T/C (second compound 0.1 µM, first compound 0.03 µM) of 120%, a viability, T/C (second compound 0.1 µM, first compound 0.0949 µM) of 133% and a viability, T/C (second compound 0.1 µM, first compound 0.3 µM) of 2.16%. It also gave a viability, T/C (second compound 0.1 µM, first compound 0.949 µM) of 0.19%, a viability, T/C (second compound 0.1 µM, first compound 3 µM) of 0.6% and a viability, T/C (second compound 0.316 µM, first compound 0.00949 µM) of 82.3%. For the same molecule, the viability, T/C (second compound 0.316 µM, first compound 0.03 µM) was 91%, the viability, T/C (second compound 0.316 µM, first compound 0.0949 µM) was 89.2% and the viability, T/C (second compound 0.316 µM, first compound 0.3 µM) was 0.99%. For the same molecule, the viability, T/C (second compound 0.316 µM, first compound 0.949 µM) was 0.25%, the viability, T/C (second compound 0.316 µM, first compound 3 µM) was 0.63% and the viability, T/C (second compound 1 µM, first compound 0.00949 µM) was 24.9%. The viability, T/C (second compound 1 µM, first compound 0.03 µM) was 34.3%, the viability, T/C (second compound 1 µM, first compound 0.0949 µM) was 38.6% and the viability, T/C (second compound 1 µM, first compound 0.3 µM) was 0.53%. For the same molecule, the viability, T/C (second compound 1 µM, first compound 0.949 µM) was 0.49%, the viability, T/C (second compound 1 µM, first compound 3 µM) was 0.25% and the viability, T/C (second compound 3.16 µM, first compound 0.00949 µM) was 11.1%. The viability, T/C (second compound 3.16 µM, first compound 0.03 µM) was 13.2%, the viability, T/C (second compound 3.16 µM, first compound 0.0949 µM) was 19.1% and the viability, T/C (second compound 3.16 µM, first compound 0.3 µM) was 0.68%. It also gave a viability, T/C (second compound 3.16 µM, first compound 0.949 µM) of 0.24%, a viability, T/C (second compound 3.16 µM, first compound 3 µM) of 0.28% and a viability, T/C (second compound 10 µM, first compound 0.00949 µM) of 5.77%. The viability, T/C (second compound 10 µM, first compound 0.03 µM) was 6.05%, the viability, T/C (second compound 10 µM, first compound 0.0949 µM) was 9.31% and the viability, T/C (second compound 10 µM, first compound 0.3 µM) was 0.64%. It also gave a viability, T/C (second compound 10 µM, first compound 0.949 µM) of 0.26% and a viability, T/C (second compound 10 µM, first compound 3 µM) of 0.31%.
